Reference: patent US9856220B2 (AbbVie Deutschland GmbH & Co. KG, priority 2011, dated 2018)

What was measured:
[1] = Determination of the microsomal half-life / microsomal clearance, rat liver microsomes; type: in vitro ADME; conditions: 0.5 μM test substance, 0.25 mg of microsomal protein/ml, pH 7.4, 37° C.
Method: (§1) b) Determination of the Microsomal Half-Life:
(§2) The metabolic stability of the compounds of the invention was determined in the following assay.
(§3) The test substances were incubated in a concentration of 0.5 μM as follows:
(§4) 0.5 μM test substance are preincubated together with liver microsomes from different species (from rat, human or other species) (0.25 mg of microsomal protein/ml) in 0.05 M potassium phosphate buffer of pH 7.4 in microtiter plates at 37° C. for 5 min. The reaction is started by adding NADPH (1 mg/mL). After 0, 5, 10, 15, 20 and 30 min, 50 μl aliquots are removed, and the reaction is immediately stopped and cooled with the same volume of acetonitrile. The samples are frozen until analyzed. The remaining concentration of undegraded test substance is determined by MSMS. The half-life (T½) is determined from the gradient of the signal of test substance/unit time plot, it being possible to calculate the half-life of the test substance, assuming first order kinetics, from the decrease in the concentration of the compound with time. The microsomal clearance (mCl) is calculated from mCl=ln 2/T½/(content of microsomal protein in mg/ml)×1000 [ml/min/mg]

[2] = Determination of the microsomal half-life / microsomal clearance, human liver microsomes; type: in vitro ADME; conditions: 0.5 μM test substance, 0.25 mg of microsomal protein/ml, pH 7.4, 37° C.
Method: as §1, §2, §3, §4

PDE10A = PDE10A (Homo sapiens (Human), UniProt Q9Y233); assay: Measurement of PDE activity (recombinant PDE, cAMP HTRF); type: biochemical; conditions: 20 nM cyclic nucleotide substrate, 60 minutes at 29 C
In short: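 Recombinant human PDE10A in 20 mM Tris-HCl pH 7.5, 10 mM MgCl2, 0.1% BSA with 20 nM cyclic nucleotide substrate; reaction 60 min at 29 C after compound preincubation with enzyme. Residual cAMP detected by HTRF (cAMP-d2/anti-cAMP cryptate); IC50 from inhibitor concentration versus PDE activity.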

Chain of PDE10A (Q9Y233 whole entry, species assumed): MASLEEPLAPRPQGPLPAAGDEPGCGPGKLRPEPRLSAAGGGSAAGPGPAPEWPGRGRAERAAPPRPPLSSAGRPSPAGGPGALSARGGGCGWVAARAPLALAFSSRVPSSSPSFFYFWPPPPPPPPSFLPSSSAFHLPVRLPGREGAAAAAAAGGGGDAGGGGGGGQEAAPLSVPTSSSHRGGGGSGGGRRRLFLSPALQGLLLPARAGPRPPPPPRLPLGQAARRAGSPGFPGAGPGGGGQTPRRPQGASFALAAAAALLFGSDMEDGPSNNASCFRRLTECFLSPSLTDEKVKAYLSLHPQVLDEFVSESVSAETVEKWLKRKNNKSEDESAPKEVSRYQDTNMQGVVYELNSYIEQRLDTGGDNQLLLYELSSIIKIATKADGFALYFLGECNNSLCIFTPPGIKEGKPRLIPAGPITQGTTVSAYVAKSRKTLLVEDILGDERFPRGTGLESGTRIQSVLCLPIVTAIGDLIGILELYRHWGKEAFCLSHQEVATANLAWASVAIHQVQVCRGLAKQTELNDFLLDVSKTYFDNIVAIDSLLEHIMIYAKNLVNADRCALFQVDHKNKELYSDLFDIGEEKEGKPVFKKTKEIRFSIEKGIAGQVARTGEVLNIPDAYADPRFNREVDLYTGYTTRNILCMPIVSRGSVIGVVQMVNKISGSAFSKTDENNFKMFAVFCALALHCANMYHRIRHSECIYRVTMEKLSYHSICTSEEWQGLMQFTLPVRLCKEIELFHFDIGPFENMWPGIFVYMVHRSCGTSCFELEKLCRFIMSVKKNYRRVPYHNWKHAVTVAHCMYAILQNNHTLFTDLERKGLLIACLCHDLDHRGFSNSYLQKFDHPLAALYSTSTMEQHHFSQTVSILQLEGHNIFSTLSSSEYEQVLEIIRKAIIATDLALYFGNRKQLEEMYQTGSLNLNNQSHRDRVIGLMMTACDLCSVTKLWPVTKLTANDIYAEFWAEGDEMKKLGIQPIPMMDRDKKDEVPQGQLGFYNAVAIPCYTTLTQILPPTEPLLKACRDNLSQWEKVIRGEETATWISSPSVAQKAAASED

Row | SMILES | Rat mCl [1] | Human mCl [2] | IC50 (PDE10A) [nM]
1 | CCC(CC)n1cc(C(=O)NC2CCc3ncccc32)c2cc(OC)c(OC)cc2c1=O (single isomer, unassigned; (-)) [Example 200, (−)-2-(1-Ethyl-propyl)-6,7-dimethoxy-1-oxo-1,2-dihydro-isoquinoline-4-carboxylic acid (6,7-dihydro-5H-[1]pyrindin-5-yl)-amide] | ++ (<100 μl min^−1 mg^−1) | ++ (<100 μl min^−1 mg^−1) | 200 to 500
2 | CCn1cc(C(=O)NC2CCc3sccc32)c2cc(OC)c(OC)cc2c1=O (single isomer, unassigned; (-)) [Example 205, (−)-2-Ethyl-6,7-dimethoxy-1-oxo-1,2-dihydro-isoquinoline-4-carboxylic acid (5,6-dihydro-4H-cyclopenta[b]thiophen-4-yl)-amide] | ++ (<100 μl min^−1 mg^−1) | ++ (<100 μl min^−1 mg^−1) | 200 to 500
3 | CCn1cc(C(=O)NC2CCc3ccccc32)c2cc(OC)c(OC)cc2c1=O (stereo not drawn) [Example 40, 2-Ethyl-6,7-dimethoxy-1-oxo-1,2-dihydro-isoquinoline-4-carboxylic acid indan-1-ylamide] | ++ (<100 μl min^−1 mg^−1) | ++ (<100 μl min^−1 mg^−1) | 100 to 200
4 | CCCCNC(=O)c1cn(CC)c(=O)c2cc(OC)c(OCCc3ccc4ccccc4n3)cc12 [Example 136, 2-Ethyl-7-methoxy-1-oxo-6-(2-quinolin-2-yl-ethoxy)-1,2-dihydro-isoquinoline-4-carboxylic acid butylamide] | ∘ (>220 μl min^−1 mg^−1) | + (100-220 μl min^−1 mg^−1) | < 100
5 | CCn1cc(C(=O)Nc2ccc(N3CCOCC3)cc2)c2cc(OC)c(OC)cc2c1=O [Example 141, 2-Ethyl-6,7-dimethoxy-N-(4-morpholinophenyl)-1-oxo-1,2-dihydroisoquinoline-4-carboxamide] | ++ (<100 μl min^−1 mg^−1) | ++ (<100 μl min^−1 mg^−1) | 100 to 200
6 | CCn1cc(C(=O)Nc2cccc(OC)c2)c2cc(OC)c(OC)cc2c1=O [Example 147, 2-Ethyl-6,7-dimethoxy-N-(3-methoxyphenyl)-1-oxo-1,2-dihydroisoquinoline-4-carboxamide] | ++ (<100 μl min^−1 mg^−1) | ++ (<100 μl min^−1 mg^−1) | 100 to 200
7 | CCn1cc(C(=O)Nc2ccc(C)cc2)c2cc(OC)c(OC)cc2c1=O [Example 158, 2-Ethyl-6,7-dimethoxy-1-oxo-N-p-tolyl-1,2-dihydroisoquinoline-4-carboxamide] | ++ (<100 μl min^−1 mg^−1) | ++ (<100 μl min^−1 mg^−1) | 100 to 200
8 | CCn1cc(C(=O)NCc2ccc(C)cc2)c2cc(OC)c(OC)cc2c1=O [Example 161, 2-Ethyl-6,7-dimethoxy-N-(4-methylbenzyl)-1-oxo-1,2-dihydroisoquinoline-4-carboxamide] | ++ (<100 μl min^−1 mg^−1) | ++ (<100 μl min^−1 mg^−1) | < 100
9 | CCn1cc(C(=O)NC2CCc3ccc(F)cc32)c2cc(OC)c(OC)cc2c1=O (stereo not drawn) [Example 171, 2-Ethyl-N-(6-fluoro-2,3-dihydro-1H-inden-1-yl)-6,7-dimethoxy-1-oxo-1,2-dihydroisoquinoline-4-carboxamide] | ++ (<100 μl min^−1 mg^−1) | ++ (<100 μl min^−1 mg^−1) | 200 to 500
10 | CCn1cc(C(=O)NC2CCc3sccc32)c2cc(OC)c(OC)cc2c1=O (stereo not drawn) [Example 172, N-(5,6-Dihydro-4H-cyclopenta[b]thiophen-4-yl)-2-ethyl-6,7-dimethoxy-1-oxo-1,2-dihydroisoquinoline-4-carboxamide] | ++ (<100 μl min^−1 mg^−1) | ++ (<100 μl min^−1 mg^−1) | 100 to 200
11 | CCC(CC)n1cc(C(=O)NC2CCc3ncccc32)c2cc(OC)c(OC)cc2c1=O (stereo not drawn) [Example 186, 2-(1-Ethyl-propyl)-6,7-dimethoxy-1-oxo-1,2-dihydro-isoquinoline-4-carboxylic acid (6,7-dihydro-5H-[1]pyrindin-5-yl)-amide] | ++ (<100 μl min^−1 mg^−1) | ++ (<100 μl min^−1 mg^−1) | 100 to 200
12 | CCC(CC)n1cc(C(=O)NCC2CCCCC2)c2cc(OC)c(OC)cc2c1=O [Example 190, 2-(1-Ethyl-propyl)-6,7-dimethoxy-1-oxo-1,2-dihydro-isoquinoline-4-carboxylic acid cyclohexylmethyl-amide] | + (100-220 μl min^−1 mg^−1) | ∘ (>220 μl min^−1 mg^−1) | 100 to 200
13 | CCC(CC)n1cc(C(=O)N[C@H]2CCc3ccccc32)c2cc(OC)c(OC)cc2c1=O [Example 192, 2-(1-Ethyl-propyl)-6,7-dimethoxy-1-oxo-1,2-dihydro-isoquinoline-4-carboxylic acid (S)-indan-1-ylamide] | + (100-220 μl min^−1 mg^−1) | ∘ (>220 μl min^−1 mg^−1) | < 100
14 | CCC(CC)n1cc(C(=O)NC2CC(=O)c3sccc32)c2cc(OC)c(OC)cc2c1=O (stereo not drawn) [Example 195, 2-(1-Ethyl-propyl)-6,7-dimethoxy-1-oxo-1,2-dihydro-isoquinoline-4-carboxylic acid (6-oxo-5,6-dihydro-4H-cyclopenta[b]thiophen-4-yl)-amide] | + (100-220 μl min^−1 mg^−1) | + (100-220 μl min^−1 mg^−1) | 100 to 200
15 | CCC(C)n1cc(C(=O)NC2CCc3ccccc32)c2cc(OC)c(OC)cc2c1=O (stereo not drawn) [Example 197, 2-sec-Butyl-6,7-dimethoxy-1-oxo-1,2-dihydro-isoquinoline-4-carboxylic acid indan-1-ylamide] | + (100-220 μl min^−1 mg^−1) | ∘ (>220 μl min^−1 mg^−1) | 100 to 200
16 | COc1cc2c(C(=O)NC3CCc4ccccc43)cn(C(C)C)c(=O)c2cc1OC (stereo not drawn) [Example 198, 2-Isopropyl-6,7-dimethoxy-1-oxo-1,2-dihydro-isoquinoline-4-carboxylic acid indan-1-ylamide] | ++ (<100 μl min^−1 mg^−1) | + (100-220 μl min^−1 mg^−1) | 200 to 500
17 | CCC(CC)n1cc(C(=O)NCc2nncs2)c2cc(OC)c(OC)cc2c1=O [Example 201, 2-(1-Ethyl-propyl)-6,7-dimethoxy-1-oxo-1,2-dihydro-isoquinoline-4-carboxylic acid ([1,3,4]thiadiazol-2-ylmethyl)-amide] | ++ (<100 μl min^−1 mg^−1) | ++ (<100 μl min^−1 mg^−1) | 200 to 500
18 | CCC(CC)n1cc(C(=O)NCc2ccccc2S(=O)(=O)N2CCOCC2)c2cc(OC)c(OC)cc2c1=O [Example 202, 2-(1-Ethyl-propyl)-6,7-dimethoxy-1-oxo-1,2-dihydro-isoquinoline-4-carboxylic acid 2-(morpholine-4-sulfonyl)-benzylamide] | + (100-220 μl min^−1 mg^−1) | ∘ (>220 μl min^−1 mg^−1) | < 100
19 | CCC(CC)n1cc(C(=O)NCc2ccccc2S(=O)(=O)N2CCN(C)CC2)c2cc(OC)c(OC)cc2c1=O [Example 219, 2-(1-Ethyl-propyl)-6,7-dimethoxy-1-oxo-1,2-dihydro-isoquinoline-4-carboxylic acid 2-(4-methyl-piperazine-1-sulfonyl)-benzylamide] | + (100-220 μl min^−1 mg^−1) | + (100-220 μl min^−1 mg^−1) | < 100
